As usually defined, the IC50 is the concentration at which inhibition is half-maximal.

Experiment [1] has as its target T1, E. coli cytochrome bd-I (Escherichia coli, UniProt P0ABJ9). Kind of experiment: Oxygen consumption assay (oxygen electrode), E. coli EC958 bd-I-only membranes. The conditions noted are these: for Inhibition of oxygen consumption / Effect on oxygen consumption (in words): 100 µM drug; for Inhibition of oxygen consumption / IC50: 8 mM succinate; for Inhibition of oxygen consumption: 500 µg/mL membranes; for IC50: IC50 oxygen consumption; for IC50 / Effect on oxygen consumption (in words): E. coli bd-I-only membranes.
T1 sequence (P0ABK2 whole entry, one chain of several): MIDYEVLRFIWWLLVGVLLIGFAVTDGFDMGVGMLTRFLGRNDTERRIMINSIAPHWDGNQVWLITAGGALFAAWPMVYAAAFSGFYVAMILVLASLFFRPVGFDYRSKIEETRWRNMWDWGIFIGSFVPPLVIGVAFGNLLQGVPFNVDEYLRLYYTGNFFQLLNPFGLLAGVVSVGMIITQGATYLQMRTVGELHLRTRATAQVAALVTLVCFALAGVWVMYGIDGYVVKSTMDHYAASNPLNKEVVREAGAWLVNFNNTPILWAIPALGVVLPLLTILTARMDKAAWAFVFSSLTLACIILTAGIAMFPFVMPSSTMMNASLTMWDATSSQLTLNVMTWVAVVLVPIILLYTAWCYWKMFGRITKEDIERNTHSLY
T1 sequence (A5A618 whole entry, one chain of several, further chain): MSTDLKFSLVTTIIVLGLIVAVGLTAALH
T1 sequence (P56100 whole entry, one chain of several, further chain): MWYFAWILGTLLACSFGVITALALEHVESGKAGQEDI

The subject of experiment [2] is Mycobacterium smegmatis bd-only strain. Also on record: method as in PMID 31939065. To be noted: ATP assays, M. smegmatis bd-only strain ref 40; cited from earlier work.
Experiment [3] concerns MRSA. Also noted: method as in PMID 28190396. To be noted: previous screen ref 31; cited from earlier work.
Experiment [4] concerns E. coli WT cells. The experiment in a line: Viability assay, E. coli WT. The conditions noted are these: 3 hours exposure.
Method: (§1) Viability assays were performed essentially as described by Webster et al [22]. In brief, E. coli EC958 was grown overnight in 10 mL LB medium and was used to inoculate M9 medium. MRSA cells were grown in TSB medium throughout. Twenty microliters of each drug was added to the wells of row A of a 96-well plate followed by 180 µL of cells (OD600 of 0.1). Cells were exposed to drug for 3 hours at 37°C. Following drug exposure, serial dilutions were performed in 1× phosphate-buffered saline (pH 7.4) before being spotted onto LB agar plates overnight to determine changes in cell growth. Six repeats were performed for each concentration of drug, which included 2 biological repeats and 3 technical repeats of each.
The subject of experiment [5] is E. coli bd-I-only strain. The experiment in a line: Growth assay, E. coli EC958 bd-I-only strain. The conditions noted are these: Escherichia coli, read-out: IC50 growth.
From the text: (§2) The methicillin-resistant Staphylococcus aureus (MRSA) strain used is the well-characterized USA300 LAC isolate [27], a community-associated MRSA strain isolated from the Los Angeles County Jail. All MRSA mutant strains were generated by phage transduction of the relevant transposon mutant from the Nebraska Transposon Mutant Library [28] into strain USA300 LAC using methods described previously [29], generating clean insertions in the loci of interest and conferring erythromycin resistance. For the purposes of this article, the MRSA qoxA::Tn strain will be referred to as “bd-only” while the cydA::Tn strain will be referred to as “aa3-only.”
(§3) Starter cultures were grown in 10 mL Luria–Bertani (LB) (E. coli) or 10 mL Tryptic Soy Broth (TSB) medium (MRSA) in sterile 50 mL conical flasks at 180 rpm and 37°C, until stationary phase was reached, and were used to inoculate 50 mL of fresh growth medium in 250 mL conical flasks. M9 minimal medium was used for E. coli (16 g/L Na2HPO4.2H2O, 3 g/L KH2PO4, 0.5 g/L NaCl, 1 g/L NH4Cl, 0.24 g/L MgSO4, 0.01 g/L CaCl2, 0.1% casamino acids, and 2% glycerol), and TSB medium was used for MRSA. […] Cells were grown in a FLUOstar Omega plate reader at double orbital pattern setting with readings being taken 300 seconds apart.
In experiment [6] the target is T2, succinate dehydrogenase (Escherichia coli, UniProt P07014+P0AC41+P0AC44+P69054).
T2 construct: endogenous in cells; host or cells: E. coli EC958 bd-I-only mutant (ΔcyoA appCB::Cm), isolated cell membranes
T2 sequence (P0AC44 whole entry): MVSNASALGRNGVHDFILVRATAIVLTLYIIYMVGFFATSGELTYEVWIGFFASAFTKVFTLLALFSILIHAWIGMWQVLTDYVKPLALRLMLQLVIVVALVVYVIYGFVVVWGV
T2 sequence (P07014 whole entry): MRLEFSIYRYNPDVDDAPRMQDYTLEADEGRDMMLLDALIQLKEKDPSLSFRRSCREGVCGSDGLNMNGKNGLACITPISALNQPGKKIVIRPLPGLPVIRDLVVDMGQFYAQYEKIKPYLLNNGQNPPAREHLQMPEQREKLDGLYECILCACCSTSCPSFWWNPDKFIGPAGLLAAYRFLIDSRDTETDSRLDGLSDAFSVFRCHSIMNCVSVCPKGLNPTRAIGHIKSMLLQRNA
T2 sequence (P0AC41 whole entry): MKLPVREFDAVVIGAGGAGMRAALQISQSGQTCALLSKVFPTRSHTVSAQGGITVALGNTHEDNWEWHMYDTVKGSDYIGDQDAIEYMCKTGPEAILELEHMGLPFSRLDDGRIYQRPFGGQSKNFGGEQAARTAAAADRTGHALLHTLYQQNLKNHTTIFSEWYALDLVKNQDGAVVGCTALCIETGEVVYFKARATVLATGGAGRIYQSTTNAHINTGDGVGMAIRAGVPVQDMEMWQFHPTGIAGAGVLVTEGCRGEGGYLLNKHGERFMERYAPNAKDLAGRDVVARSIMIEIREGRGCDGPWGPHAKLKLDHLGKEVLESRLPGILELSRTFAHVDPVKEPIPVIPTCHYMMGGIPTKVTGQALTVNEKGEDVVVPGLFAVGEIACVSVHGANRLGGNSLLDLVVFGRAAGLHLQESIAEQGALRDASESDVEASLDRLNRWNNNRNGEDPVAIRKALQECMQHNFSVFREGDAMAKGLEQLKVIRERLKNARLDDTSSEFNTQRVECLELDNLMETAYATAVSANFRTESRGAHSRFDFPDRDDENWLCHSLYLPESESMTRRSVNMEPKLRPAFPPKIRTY
T2 sequence (P69054 whole entry): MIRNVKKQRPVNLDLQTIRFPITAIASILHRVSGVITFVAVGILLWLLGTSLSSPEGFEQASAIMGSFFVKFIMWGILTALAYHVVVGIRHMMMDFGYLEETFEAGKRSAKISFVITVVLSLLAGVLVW
The experiment in a line: Succinate dehydrogenase assay, E. coli bd-I-only membranes. Format: biochemical. How it is done:
The method used for the succinate dehydrogenase assay is an adaptation of Kolaj-Robin et al. 2011 [6]. A 1 mL mixture was prepared with a final concentration of 400 μM phenazine methosulfate (PMS), 8 mM succinate, 50 mM Tris-HCL (pH 8.5) buffer, 0.02 % n-dodecyl-β-D-maltoside, 2.5% drug, 500 µg/mL of bacteria membranes and 50 μM of dichlorophenolindophenol (added last). The phenazine methosulfate, succinate and membranes were first preincubated for 30 min at 37 °C before being added to the remaining mixture. To start the reaction, 50 μM of dichlorophenolindophenol was added that produced a starting OD600 that ranged from 0.8 to 1. Spectrakinetics were recorded on a Cary 60 spectrophotometer for 15 min.
Supplementary Figure S3. Succinate dehydrogenase (SDH) E. coli membrane assay with quinestrol. The activity of SDH was expressed as a percentage of the DMSO only control. Data represent the means of three repeats and error bars represent the standard deviation.

The target of experiment [7] is MRSA cytochrome bd (Staphylococcus aureus, UniProt A0A0H2XF42). Kind of experiment: Oxygen consumption assay, MRSA bd-only membranes. The conditions noted are these: read-out: IC50 oxygen consumption; MRSA bd-only membranes 1 mg/mL, 500 µM NADH.
Sequence of MRSA cytochrome bd (A0A0H2XF42 entry or part of it): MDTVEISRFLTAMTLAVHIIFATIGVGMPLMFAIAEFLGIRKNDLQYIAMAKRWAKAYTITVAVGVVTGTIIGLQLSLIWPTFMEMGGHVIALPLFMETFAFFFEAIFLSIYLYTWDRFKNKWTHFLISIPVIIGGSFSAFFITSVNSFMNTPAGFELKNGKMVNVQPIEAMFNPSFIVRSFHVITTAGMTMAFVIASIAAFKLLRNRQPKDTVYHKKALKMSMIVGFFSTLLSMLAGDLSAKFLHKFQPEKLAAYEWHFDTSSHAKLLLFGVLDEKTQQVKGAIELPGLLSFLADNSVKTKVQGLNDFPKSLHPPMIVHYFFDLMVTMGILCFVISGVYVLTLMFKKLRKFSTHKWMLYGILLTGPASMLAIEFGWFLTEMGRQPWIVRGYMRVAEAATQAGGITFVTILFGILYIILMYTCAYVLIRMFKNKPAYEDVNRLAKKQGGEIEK
Sequence of MRSA cytochrome bd (A0A0H2XJA4 entry or part of it, further chain): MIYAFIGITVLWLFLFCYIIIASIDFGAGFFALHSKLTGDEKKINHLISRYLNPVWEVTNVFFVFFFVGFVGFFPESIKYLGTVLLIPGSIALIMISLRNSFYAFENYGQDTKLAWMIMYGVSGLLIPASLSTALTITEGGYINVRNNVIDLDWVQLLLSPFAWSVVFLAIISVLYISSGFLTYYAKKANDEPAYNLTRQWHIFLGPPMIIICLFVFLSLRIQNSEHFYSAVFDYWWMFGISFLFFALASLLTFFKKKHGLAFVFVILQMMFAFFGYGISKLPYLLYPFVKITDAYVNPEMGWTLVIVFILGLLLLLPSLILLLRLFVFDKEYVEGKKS
Experiment [8] concerns E. coli EC958 WT. The experiment in a line: Growth assay, E. coli EC958 WT. The conditions noted are these: Escherichia coli, EC958WT, read-out: IC50 growth.
Method: (§4) Starter cultures were grown in 10 mL Luria–Bertani (LB) (E. coli) or 10 mL Tryptic Soy Broth (TSB) medium (MRSA) in sterile 50 mL conical flasks at 180 rpm and 37°C, until stationary phase was reached, and were used to inoculate 50 mL of fresh growth medium in 250 mL conical flasks. M9 minimal medium was used for E. coli (16 g/L Na2HPO4.2H2O, 3 g/L KH2PO4, 0.5 g/L NaCl, 1 g/L NH4Cl, 0.24 g/L MgSO4, 0.01 g/L CaCl2, 0.1% casamino acids, and 2% glycerol), and TSB medium was used for MRSA. […] Greiner F-bottom sterile 96-well plates were prepared by adding 100 µL of a 2× concentrated growth medium, 61.7 µL sterile milliQ H2O, 5 µL of the drug, and 33.3 µL of cell culture (final optical density at 600 nm [OD600] of ∼ 0.1). Cells were grown in a FLUOstar Omega plate reader at double orbital pattern setting with readings being taken 300 seconds apart.
The test system of experiment [9] is E. coli bo′-only cells. The experiment in a line: Viability assay, E. coli bo′-only. To be noted: data not shown.
Experiment [10] relates to E. coli bo′-only strain. Kind of experiment: Growth assay, E. coli EC958 bo′-only strain. The conditions noted are these: Escherichia coli, read-out: IC50 growth.
From the text: as §2, §3
In experiment [11] the test system is MRSA aa3-only cells. Kind of experiment: microbe, parasite or virus in culture. To be noted: Staphylococcus aureus, 3 h, read-out: LC50 (median lethal concentration).
Method: as §1
The test system of experiment [12] is MRSA USA300 WT. The experiment in a line: Growth assay, MRSA USA300 WT.
Method: as §4
Experiment [13] deals with MRSA aa3-only strain. Kind of experiment: Growth assay, MRSA USA300 aa3-only strain. The conditions noted are these: Staphylococcus aureus, read-out: IC50 growth.
From the text: as §2, §3
For experiment [14], the system named is MRSA bd-only strain. The experiment in a line: Growth assay, MRSA USA300 bd-only strain. The conditions noted are these: Staphylococcus aureus, read-out: IC50 growth.
From the text: as §2, §3
The test system of experiment [15] is gram-negative species. Also on record: method as in PMID 28190396. To be noted: previous screen ref 31; cited from earlier work.
Experiment [16] concerns MRSA bd-only cells. Kind of experiment: microbe, parasite or virus in culture. To be noted: Staphylococcus aureus, 3 h, read-out: LC50 (median lethal concentration).
Method: as §1
Experiment [17] concerns MRSA WT cells. Kind of experiment: microbe, parasite or virus in culture. To be noted: Staphylococcus aureus, 3 h, read-out: LC50 (median lethal concentration).
Method: as §1
The test system of experiment [18] is E. coli bd-I-only cells. Kind of experiment: Viability assay, E. coli bd-I-only. Format: cell-based, Escherichia coli. To be noted: data not shown.
Experiment [19] concerns vancomycin-resistant Enterococcus faecium. Also on record: method as in PMID 28190396. To be noted: previous screen ref 31; cited from earlier work.
The target in experiment [20] is T3, E. coli cytochrome bd-I (Escherichia coli, UniProt P0ABJ9).
T3 construct: endogenous in cells; host or cells: E. coli EC958 (O25:H4-ST131) bd-I-only mutant (ΔcyoA appCB::Cm), isolated cell membranes
T3 sequence (P0ABJ9 whole entry, looked up): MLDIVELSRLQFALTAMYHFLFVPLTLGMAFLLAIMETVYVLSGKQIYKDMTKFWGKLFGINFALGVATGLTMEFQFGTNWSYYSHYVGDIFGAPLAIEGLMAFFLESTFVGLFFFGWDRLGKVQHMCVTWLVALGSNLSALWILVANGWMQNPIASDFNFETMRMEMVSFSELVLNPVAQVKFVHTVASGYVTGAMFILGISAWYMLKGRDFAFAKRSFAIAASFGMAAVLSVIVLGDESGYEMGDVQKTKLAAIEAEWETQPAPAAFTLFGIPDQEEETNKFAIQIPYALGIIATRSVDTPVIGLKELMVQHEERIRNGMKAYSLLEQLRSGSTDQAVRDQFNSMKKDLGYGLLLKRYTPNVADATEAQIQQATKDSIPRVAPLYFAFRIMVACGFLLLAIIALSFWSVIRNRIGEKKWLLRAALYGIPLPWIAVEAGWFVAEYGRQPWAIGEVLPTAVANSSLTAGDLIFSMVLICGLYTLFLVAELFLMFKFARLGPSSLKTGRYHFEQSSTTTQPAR
The conditions noted are these: peptides that bind to E. coli cytochrome bd-I ref 33, 34, 35; cited from earlier work.

For experiment [21], the target named is T1, E. coli cytochrome bd-I. Also noted: endogenous in cells; host or cells: E. coli EC958 (O25:H4-ST131) bd-I-only mutant (ΔcyoA appCB::Cm), isolated cell membranes. The conditions noted are these: peptides that bind to E. coli cytochrome bd-I ref 33, 34, 35; cited from earlier work.

Values after ≈ are worked out from the molar mass of the structure shown. Values joined by “and” are separate entries in the source; they are usually repeats but may differ in a detail not shown here. Identical values can stand only once. “Also recorded” adds a separate entry of the source. Like-named read-outs stand apart in the source and are kept apart here. No end group written: not given here.

Regarding `C#C[C@]1(O)CC[C@H]2[C@@H]3CCc4cc(O)ccc4[C@H]3CC[C@@]21C` [Ethinyl estradiol], in experiment [1], the “Inhibition of oxygen consumption” value came out at 2 fold; the concentration for half-maximal inhibition (IC50) was 159 µM and 158 µM.

As to `CCn1c(C(=O)O)c(CNCCc2ccc(Cl)cc2)c2ccccc21` [MQL-H2, 3-[[2-(4-chlorophenyl)ethylamino]methyl]-1-ethyl-indole-2-carboxylic], the concentration for half-maximal inhibition (IC50) in experiment [2] is 34 µM.

In the case of `C#C[C@]1(O)CC[C@H]2[C@@H]3CCc4cc(OC)ccc4[C@H]3CC[C@@]21C` [Mestranol], the figures for the “Effect on oxygen consumption (in words)” value in experiment [1] and in experiment [1] (listed as mestranol) were “did not diminish oxygen consumption” and “no inhibitory effects”, respectively.

For `C#C[C@]1(O)CC[C@H]2[C@@H]3CCc4cc(OC5CCCC5)ccc4[C@H]3CC[C@@]21C` [Quinestrol], the results for the “Growth inhibition (in words)” value in experiment [3], in [15] and in [19] were “inhibit the growth”, “not gram-negative species” and “inhibit the growth”, respectively. Besides, the “Inhibition of oxygen consumption” value in experiment [1] worked out at 4 fold. For the same molecule, the IC50 is 0.549 µM and 0.5 µM in experiment [1]; 0.06 µg/mL and 200 nM in experiment [5]; 2.69 µM in experiment [7]; 0.1 µg/mL and 300 nM in experiment [8]; 0.1 µg/mL and 300 nM in experiment [10]; 9.8 µg/mL and 27 µM in experiment [12] (Staphylococcus aureus, read-out: IC50 growth, MRSA WT, TSB medium). The concentration for half-maximal inhibition (IC50) in [12] (read-out: IC50 growth, MRSA WT, TSB medium) is 26.9 µM; in experiment [13] it was 5.7 µg/mL and 15.6 µM; in experiment [14] it was 2.2 µg/mL and 6 µM. Besides, the “Residual oxygen consumption activity” value in experiment [1] (at higher concentrations) is “around 20%”. The “Bactericidal activity (in words)” value in experiment [4] was “not lethal”; in [4] (listed as quinestrol) it was “did not kill; also recorded: completely resistant to killing”; in experiment [9] it was “no killing effects”; in experiment [18], “no killing effects”. The “Succinate dehydrogenase activity (in words)” value in experiment [6] is on record as “does not inhibit succinate dehydrogenase activity”. Also, the CC50 stood at 24.7 ± 1.6 µM in experiment [11], 5.6 ± 0.3 µg/mL (≈ 15.4 µM) in experiment [16] and 3.4 ± 0.7 µg/mL (≈ 9.33 µM) in [17].

For the molecule cathelicidin LL-37, in [20], the “IC50 (in words)” value is “µM range”.

Regarding gramicidin S, the “IC50 (in words)” value in experiment [21] is reported as “µM range”.

Take “microcin J25 (GGAGHVPEYFVGIGTPISFYG; ends and bridges not checked; UniProt Q9X2V7 38-58, looked up)”: the “IC50 (in words)” value in experiment [20] is on record as “µM range”.

Values taken from PMC11272085, “Steroid Drugs Inhibit Bacterial Respiratory Oxidases and Are Lethal Toward Methicillin-Resistant Staphylococcus aureus” (The Journal of Infectious Diseases, 2024).
